Our source for the MIC values is patent publication US10647675B2 (priority 2015, dated 2020).

≈ marks a conversion by molar mass, not a printed value.

Test [1] deals with Trichophyton mentagrophytes SM-110. Nature of the test: Antifungal activity evaluation test: minimum inhibitory concentration (MIC), broth dilution by reference to CLSI M38-A2. The format is cell-based. As to conditions: SM110, read-out: MIC (T. menta.). The essentials:
(§1)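 MIC read visually as lowest concentration inhibiting growth by at least 80% relative to control after 4 days at 35° C. Trichophyton strains inoculated at 2×10^3 cells/mL final in MOPS-buffered RPMI 1640 (pH 7.0); compounds as 2-fold DMSO series, CLSI M38-A2 basis.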

Test [2] relates to Trichophyton rubrum KD-1130. The description is as above. The format is cell-based. Conditions: KD1130, read-out: MIC (T. rubrum). The procedure, abridged:
as §1

Take `COc1ccncc1-c1cccnc1Oc1ccc(C(C)C)cc1` [I-255, 2-(4-isopropylphenoxy)-4′-methoxy-3,3′-bipyridine]: the minimum inhibitory concentration (MIC) in test [1] and in test [2] was at most 0.1 µg/mL in each case.
`CCC(C)c1ccc(Oc2ncccc2-c2cnccc2OC)cc1` (centres unmarked) [I-256, 2-[4-(sec-butyl)phenoxy]-4′-methoxy-3,3′-bipyridine]: the MIC in test [1] and in test [2] was at most 0.1 µg/mL each time.
As for `C=Cc1ccc(Oc2ncccc2-c2cnccc2OC)cc1` [I-258, 4′-methoxy-2-(4-vinylphenoxy)-3,3′-bipyridine], the MIC in test [1] and in test [2] was at most 0.1 µg/mL in each case.
With `COc1ccncc1-c1cccnc1Oc1ccc(C#C[Si](C)(C)C)cc1` [I-259, 4′-methoxy-2-{4-[(trimethylsilyl)ethynyl]phenoxy}-3,3′-bipyridine], the minimal inhibitory concentration (MIC) in test [1] and in test [2] was 0.2 to 0.78 µg/mL (≈ 0.534 to 2.08 µM) in each case.
For the compound `C#Cc1ccc(Oc2ncccc2-c2cnccc2OC)cc1` [I-260, 2-(4-ethynylphenoxy)-4′-methoxy-3,3′-bipyridine], the MIC in test [1] is 0.2 to 0.78 µg/mL (≈ 0.662 to 2.58 µM); in test [2], at most 0.1 µg/mL.
For the compound `COc1ccncc1-c1cccnc1Oc1ccc(C2CC2)cc1` [I-261, 2-(4-cyclopropylphenoxy)-4′-methoxy-3,3′-bipyridine], the MIC in test [1] and in test [2] was at most 0.1 µg/mL each time.
For the compound `COc1ccncc1-c1cccnc1Oc1ccc(C)c(C)c1` [I-262, 2-(3,4-dimethylphenoxy)-4′-methoxy-3,3′-bipyridine], the MIC in test [1] and in test [2] was 0.2 to 0.78 µg/mL (≈ 0.653 to 2.55 µM) in each case.
As to `CCc1ccc(Oc2ncccc2-c2cnccc2OC)cc1C` [I-263, 2-(4-ethyl-3-methylphenoxy)-4′-methoxy-3,3′-bipyridine], the MIC in test [1] and in test [2] was at most 0.1 µg/mL throughout.
Regarding `CCc1cc(Oc2ncccc2-c2cnccc2OC)ccc1C` [I-264, 2-(3-ethyl-4-methylphenoxy)-4′-methoxy-3,3′-bipyridine], the MIC in test [1] and in test [2] was at most 0.1 µg/mL throughout.
On to `CCc1cccc(Oc2ncccc2-c2cnccc2OC)c1` [I-265, 2-(3-ethylphenoxy)-4′-methoxy-3,3′-bipyridine], for which the minimum inhibitory concentration (MIC) in test [1] and in test [2] was 0.2 to 0.78 µg/mL (≈ 0.653 to 2.55 µM) each time.
For `COc1ccncc1-c1cccnc1Oc1ccc2c(c1)CCC2` [I-266, 2-[(2,3-dihydro-1H-inden-5-yl)oxy]-4′-methoxy-3,3′-bipyridine], the minimal inhibitory concentration (MIC) in test [1] and in test [2] was at most 0.1 µg/mL each time.
In the case of `COc1ccncc1-c1cccnc1Oc1ccc2c(c1)CCCC2` [I-267, 4′-methoxy-[(5,6,7,8-tetrahydronaphthalen-2-yl)oxy]-3,3′-bipyridine], the minimal inhibitory concentration (MIC) in test [1] and in test [2] was at most 0.1 µg/mL in each case.
For `COc1ccccc1-c1cccnc1Oc1ccc2c(c1)CCCC2` [I-268, 3-(2-methoxyphenyl)-2-[(5,6,7,8-tetrahydronaphthalen-2-yl)oxy]pyridine], the MIC in test [1] and in test [2] was at most 0.1 µg/mL throughout.
As for `COc1ncccc1-c1cccnc1Oc1ccc2c(c1)CCCC2` [I-269, 2-methoxy-2′-[(5,6,7,8-tetrahydronaphthalen-2-yl)oxy]-3,3′-bipyridine], the minimum inhibitory concentration (MIC) in test [1] and in test [2] was at most 0.1 µg/mL throughout.
Turning to `COc1ncccc1-c1cccnc1Oc1ccc2c(c1)CCC2` [I-270, 2-[(2,3-dihydro-1H-inden-5-yl)oxy]-2′-methoxy-3,3′-bipyridine], the MIC in test [1] and in test [2] was at most 0.1 µg/mL throughout.
Turning to `COc1ncncc1-c1cccnc1Oc1ccc2c(c1)CCCC2` [I-271, 4′-methoxy-5-{2-[(5,6,7,8-tetrahydronaphthalen-2-yl)oxy]pyridin-3-yl}pyrimidine], the MIC in test [1] and in test [2] was at most 0.1 µg/mL in each case.
Take `COc1ncccc1-c1cccnc1Oc1ccc2c(c1)CCCC2=O` [I-272, 6-{[2′-methoxy-(3,3-bipyridin)-2-yl]oxy}-3,4-dihydronaphthalen-1(2H)-one]: the MIC in test [1] and in test [2] was at most 0.1 µg/mL in each case.
On to `COc1ccccc1-c1cccnc1Oc1ccc2c(c1)C(=O)CCC2` [I-273, 7-{[3-(2-methoxyphenyl)pyridin-2-yl]oxy}-3,4-dihydronaphthalen-1(2H)-one], for which the minimum inhibitory concentration (MIC) in test [1] and in test [2] was at most 0.1 µg/mL each time.
As for `CCOCCc1ccc(Oc2ncccc2-c2cnccc2OC)cc1` [I-274, 2-[4-(2-ethoxyethyl)phenoxy]-4′-methoxy-3,3′-bipyridine], the minimum inhibitory concentration (MIC) in test [1] and in test [2] was 0.2 to 0.78 µg/mL (≈ 0.571 to 2.23 µM) throughout.
With `COCC(C)(C)c1ccc(Oc2ncccc2-c2cnccc2OC)cc1` [I-275, 4′-methoxy-2-[4-(1-methoxy-2-methylpropan-2-yl)phenoxy]-3,3′-bipyridine], the MIC in test [1] and in test [2] was 0.2 to 0.78 µg/mL (≈ 0.549 to 2.14 µM) throughout.
Regarding `COCC1(c2ccc(Oc3ncccc3-c3cnccc3OC)cc2)CC1` [I-276, 4′-methoxy-2-{4-[1-(methoxymethyl)cyclopropyl]phenoxy}-3,3′-bipyridine], the minimal inhibitory concentration (MIC) in test [1] and in test [2] was 0.2 to 0.78 µg/mL (≈ 0.552 to 2.15 µM) throughout.
On to `COc1ncccc1-c1cccnc1Oc1ccc(OCc2ccccc2)cc1` [I-277, 2-[4-(benzyloxy)phenoxy]-2′-methoxy-3,3′-bipyridine], for which the MIC in test [1] and in test [2] was at most 0.1 µg/mL throughout.
`CCC(=O)OCCc1ccc(Oc2ncccc2-c2cnccc2OC)cc1` [I-278, 4-{[4′-methoxy-3,3′-bipyridin)-2-yl]oxy}phenethyl propionate]: the MIC in test [1] and in test [2] was 0.2 to 0.78 µg/mL (≈ 0.529 to 2.06 µM) throughout.
In the case of `COC(=O)CCc1ccc(Oc2ncccc2-c2cnccc2OC)cc1` [I-279, methyl 3-(4-{[4′-methoxy-3,3′-bipyridin-2-yl]oxy}phenyl)propionate], the MIC in test [1] and in test [2] was 0.2 to 0.78 µg/mL (≈ 0.549 to 2.14 µM) each time.
Turning to `CCc1ccc(Oc2ncccc2-c2cccnc2OC)cc1` [I-280, 2-(4-ethylphenoxy)-2′-methoxy-3,3′-bipyridine], the MIC in test [1] and in test [2] was at most 0.1 µg/mL throughout.
`CCc1ccc(Oc2ncccc2-c2ccncc2OC)cc1` [I-281, 2-(4-ethylphenoxy)-3′-methoxy-3,4′-bipyridine]: the MIC in test [1] and in test [2] was at most 0.1 µg/mL each time.
On to `CCc1ccc(Oc2ncccc2-c2cncnc2OC)cc1` [I-282, 5-[2-(4-ethylphenoxy)pyridin-3-yl]-4-methoxypyrimidine], for which the MIC in test [1] and in test [2] was at most 0.1 µg/mL in each case.
With `CCc1ccc(Oc2ncccc2-c2cncc(F)c2OC)cc1` [I-283, 2-(4-ethylphenoxy)-5′-fluoro-4′-methoxy-3,3′-bipyridine], the minimum inhibitory concentration (MIC) in test [1] and in test [2] was at most 0.1 µg/mL each time.
`CCc1ccc(Oc2ncccc2-c2cncc(Cl)c2OC)cc1` [I-284, 5′-chloro-2-(4-ethylphenoxy)-4′-methoxy-3,3′-bipyridine]: the minimal inhibitory concentration (MIC) in test [1] and in test [2] was at most 0.1 µg/mL each time.
With `CCc1ccc(Oc2ncccc2-c2cncc(Br)c2OC)cc1` [I-285, 5′-bromo-2-(4-ethylphenoxy)-4′-methoxy-3,3′-bipyridine], the MIC in test [1] and in test [2] was at most 0.1 µg/mL in each case.
In the case of `CCc1ccc(Oc2ncccc2-c2cncc(C)c2OC)cc1` [I-286, 2-(4-ethylphenoxy)-4′-methoxy-5′-methyl-3,3′-bipyridine], the minimal inhibitory concentration (MIC) in test [1] and in test [2] was at most 0.1 µg/mL throughout.
As to `CCc1ccc(Oc2ncccc2-c2cncc(C=O)c2OC)cc1` [I-287, 2′-(4-ethylphenoxy)-4-methoxy-(3,3′-bipyridine)-5-carbaldehyde], the MIC in test [1] and in test [2] was 0.2 to 0.78 µg/mL (≈ 0.598 to 2.33 µM) in each case.
As to `CCc1ccc(Oc2ncccc2-c2cncc(C(F)F)c2OC)cc1` [I-288, 5′-(difluoromethyl)-2-(4-ethylphenoxy)-4′-methoxy-3,3′-bipyridine], the minimum inhibitory concentration (MIC) in test [1] and in test [2] was at most 0.1 µg/mL throughout.
With `CCc1ccc(Oc2ncccc2-c2cnccc2C)cc1` [I-289, 2-(4-ethylphenoxy)-4′-methyl-3,3′-bipyridine], the MIC in test [1] and in test [2] was at most 0.1 µg/mL in each case.
With `CCc1ccc(Oc2ncccc2-c2cnccc2Cl)cc1` [I-290, 4′-chloro-2-(4-ethylphenoxy)-3,3′-bipyridine], the MIC in test [1] and in test [2] was at most 0.1 µg/mL throughout.
Turning to `CCc1ccc(Oc2ncccc2-c2cnccc2CC)cc1` [I-291, 4′-ethyl-2-(4-ethylphenoxy)-3,3′-bipyridine], the MIC in test [1] and in test [2] was at most 0.1 µg/mL throughout.
Take `CCc1ccc(Oc2ncccc2-c2cccc3ccnn23)cc1` [I-292, 7-[2-(4-ethylphenoxy)pyridin-3-yl]pyrazolo[1,5-a]pyridine]: the minimum inhibitory concentration (MIC) in test [1] and in test [2] was at most 0.1 µg/mL throughout.
On to `CCc1ccc(Oc2ncccc2-c2cc3nccn3cc2C)cc1` [I-293, 7-[2-(4-ethylphenoxy)pyridin-3-yl]-6-methylimidazo[1,2-a]pyridine], for which the minimal inhibitory concentration (MIC) in test [1] and in test [2] was 1.56 to 6.25 µg/mL (≈ 4.74 to 19 µM) throughout.
For `COc1ccncc1-c1cccnc1Oc1ccc(C(F)F)cc1` [I-294, 2-[4-(difluoromethyl)phenoxy]-4′-methoxy-3,3′-bipyridine], the minimum inhibitory concentration (MIC) in test [1] and in test [2] was 0.2 to 0.78 µg/mL (≈ 0.609 to 2.38 µM) in each case.
Regarding `COc1ccncc1-c1cccnc1Oc1ccc(C(F)F)c(C)c1` [I-295, 2-[4-(difluoromethyl)-3-methylphenoxy]-4′-methoxy-3,3′-bipyridine], the MIC in test [1] and in test [2] was at most 0.1 µg/mL each time.
As to `CCc1cc(Oc2ncccc2-c2cnccc2OC)ccc1C(F)F` [I-296, 2-[4-(difluoromethyl)-3-ethylphenoxy]-4′-methoxy-3,3′-bipyridine], the MIC in test [1] and in test [2] was at most 0.1 µg/mL throughout.
On to `COc1ccncc1-c1cccnc1Oc1ccc(C(C)(F)F)cc1` [I-297, 2-[4-(1,1-difluoroethyl)-phenoxy]-4′-methoxy-3,3′-bipyridine], for which the minimum inhibitory concentration (MIC) in test [1] and in test [2] was at most 0.1 µg/mL in each case.
In the case of `COc1ncccc1-c1cccnc1Oc1ccc(C(C)(F)F)cc1` [I-298], the MIC in test [1] and in test [2] was at most 0.1 µg/mL each time.
